Results published in ChEMBL document CHEMBL3351224 (ACS Med Chem Lett, 2014).

How the values were obtained:
[1] = target: T1, Cysteinyl leukotriene receptor 2 (Homo sapiens, UniProt Q9NS75); assay: Antagonist activity at human CysLT2 receptor expressed in HEK293 cells assessed as inhibition of LTD4-inudced intracellular calcium influx preincubated for 30 mins before LTD4 addition by Fura2-AM assay; assay type: functional, cell-based
T1 sequence (Q9NS75 whole entry): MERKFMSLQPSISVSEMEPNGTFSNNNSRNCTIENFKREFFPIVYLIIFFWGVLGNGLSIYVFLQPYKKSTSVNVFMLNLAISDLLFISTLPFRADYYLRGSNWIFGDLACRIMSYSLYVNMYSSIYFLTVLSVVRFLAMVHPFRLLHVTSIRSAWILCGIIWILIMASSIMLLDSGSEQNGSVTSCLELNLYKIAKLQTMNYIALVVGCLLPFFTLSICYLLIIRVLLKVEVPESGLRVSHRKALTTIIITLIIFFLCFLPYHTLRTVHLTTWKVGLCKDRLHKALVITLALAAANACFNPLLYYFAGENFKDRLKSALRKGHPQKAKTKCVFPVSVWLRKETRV

[2] = target: T2, Cysteinyl leukotriene receptor 1 (Homo sapiens, UniProt Q9Y271); assay: Antagonist activity at human CysLT1 receptor expressed in CHO cells assessed as inhibition of LTD4-inudced intracellular calcium influx preincubated for 30 mins before LTD4 addition by Fura2-AM assay; assay type: functional, cell-based
T2 sequence (Q9Y271 whole entry): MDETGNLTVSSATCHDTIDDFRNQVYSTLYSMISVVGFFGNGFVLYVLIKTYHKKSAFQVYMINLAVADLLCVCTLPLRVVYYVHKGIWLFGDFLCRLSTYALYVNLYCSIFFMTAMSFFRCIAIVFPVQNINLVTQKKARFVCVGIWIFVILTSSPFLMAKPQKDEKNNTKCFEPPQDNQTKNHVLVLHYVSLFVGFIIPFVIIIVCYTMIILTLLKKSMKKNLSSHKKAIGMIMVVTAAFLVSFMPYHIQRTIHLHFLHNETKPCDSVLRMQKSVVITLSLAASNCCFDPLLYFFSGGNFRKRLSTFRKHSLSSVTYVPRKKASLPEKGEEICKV

[3] = target: T3, Cysteinyl leukotriene receptor 2 (Homo sapiens) (UniProt Q9NS75); assay: Antagonist activity at human CysLT2 receptor expressed in HEK293 cells assessed as inhibition of LTD4-inudced intracellular calcium influx preincubated at 10 uM for 30 mins before LTD4 addition by Fura2-AM assay; assay type: functional, cell-based
T3 sequence (whole entry): T1 sequence (Q9NS75 whole entry)

[4] = Oral bioavailability in rat at 30 mg/kg; assay type: ADME, organism-based; details: in vivo
[5] = AUC in rat at 30 mg/kg, po; assay type: ADME, organism-based; set-up: dose 30 mg/kg, route oral; details: plasma
[6] = Clearance in rat at 1 mg/kg, iv; assay type: ADME, organism-based; set-up: dose 1 mg/kg, route intravenous; details: in vivo
[7] = Half life in rat at 1 mg/kg, iv; assay type: ADME, organism-based; set-up: dose 1 mg/kg, route intravenous; details: in vivo

Row | Compound | IC50 [1] [nM] | IC50 [2] [nM] | further results
1 | O=C(O)CCCC(=O)N1CC(C(=O)O)Oc2c(NC(=O)c3ccc(OCCCCc4ccccc4)cc3)cccc21 (configuration not stated) | 1800 | < 1 | 
2 | O=C(O)CCC(=O)N1CC(C(=O)O)Oc2c(NC(=O)c3ccc(OCCCCc4ccccc4)cc3)cccc21 (configuration not stated) | 890 | 1.4 | 
3 | O=C(Nc1cccc2c1OC(C(=O)O)CN2)c1ccc(OCCCCc2ccccc2)cc1 (configuration not stated) | 4600 | 54 | 
4 | CCN(CC)C(=O)/C=C(\C)c1ccc2oc(C(=O)c3ccc(C#N)cc3)c(NC(=O)/C(C#N)=C(/C)O)c2c1 | 7700 | 9700 | 
5 | O=C(O)CCCN1CC(C(=O)O)Oc2c(NC(=O)c3ccc(OCCCc4ccccc4)cc3)cccc21 (configuration not stated) | 68 | 1300 | 
6 | CCCCC/C=C\C\C=C/C=C/C=C/[C@@H](Sc1ccc(C(=O)O)cc1)[C@@H](O)CCCC(=O)O | 300 | 440 | 
7 | CCCC(=O)N1CC(C(=O)O)Oc2c(NC(=O)c3ccc(OCCCCc4ccccc4)cc3)cccc21 (configuration not stated) | 3700 | 300 | 
8 | O=C(Nc1ccc2c(c1)NCC(C(=O)O)O2)c1ccc(OCCCCc2ccccc2)cc1 (configuration not stated) |  | 840 | inhibition [3]: 25%
9 | O=C(O)CCCN1CC(C(=O)O)Oc2c(NC(=O)c3ccc(OCCCCCc4ccccc4)cc3)cccc21 (configuration not stated) | 0.62 | 120 | 
10 | CCC(=O)N1CC(C(=O)O)Oc2c(NC(=O)c3ccc(OCCCCc4ccccc4)cc3)cccc21 (configuration not stated) | 5200 | 150 | 
11 | O=C(O)CCCN1CC(C(=O)O)Oc2c(NC(=O)c3ccc(OCCCOc4ccccc4)cc3)cccc21 (configuration not stated) | 16 | 290 | 
12 | O=C(O)CCCCCN1CC(C(=O)O)Oc2c(NC(=O)c3ccc(OCCCCc4ccccc4)cc3)cccc21 (configuration not stated) | 290 | 130 | 
13 | O=C(O)CCCN1CC(C(=O)O)Oc2c(NC(=O)c3ccc(OCCCCOc4ccccc4)cc3)cccc21 (configuration not stated) | 17 | 32 | 
14 | O=C(O)CCCN1CC(C(=O)O)Oc2c(NC(=O)c3ccc(OCCCCc4ccccc4)cc3)cccc21 (configuration not stated) |  |  | bioavailability [4]: 1.5%; AUC [5]: 1600 ng·h/mL; clearance [6]: 4.7 mL/min/kg; half-life [7]: 3.4 h
15 | O=C(O)CCCCN1CC(C(=O)O)Oc2c(NC(=O)c3ccc(OCCCCc4ccccc4)cc3)cccc21 (configuration not stated) | 170 | 44 | 
16 | O=C(O)c1ccc(OCCCc2ccc(OCCCCOc3ccccc3)cc2)c(C(=O)NC2CCCC(C(=O)O)C2)c1 (configuration not stated) | 53 | > 2500 | 
17 | O=C(O)CCCN1CC(C(=O)O)Oc2c(NC(=O)c3ccc(OCCOc4ccccc4)cc3)cccc21 (configuration not stated) | 1500 | 3000 | 
18 | CC(=O)N1CC(C(=O)O)Oc2c(NC(=O)c3ccc(OCCCCc4ccccc4)cc3)cccc21 (configuration not stated) | 3600 | 13 | 
19 | O=C(O)CCCCC(=O)N1CC(C(=O)O)Oc2c(NC(=O)c3ccc(OCCCCc4ccccc4)cc3)cccc21 (configuration not stated) | 890 | 12 | 
20 | O=C(Nc1ccc2c(c1)OC(C(=O)O)CN2)c1ccc(OCCCCc2ccccc2)cc1 (configuration not stated) |  | 4600 | inhibition [3]: 36%
